Laboratory results taken from ChEMBL document CHEMBL5380860, “Design, Synthesis, and Antitumor Activity of Potent and Selective EGFR L858R/T790M Inhibitors and Identification of a Combination Therapy to Overcome Acquired Resistance in Models of Non-small-cell Lung Cancer” (J Med Chem, 2023).
Active and inactive are the calls of the source. No cut-off for these calls is given here.

Key:
[1] = tested on: HCC827; assay: Induction of apoptosis in human HCC827 cells assessed as induction of PARP cleavage pretreated with compound for 4 hrs followed by incubation with EGF for 10 mins by western blot analysis; assay type: functional, cell-based; conditions: dose 0.1-10 µM, time 250.0 min
[2] = AUC (0 to infinity) in Sprague-Dawley rat at 1 mg/kg, iv by LC-MS analysis; assay type: ADME, organism-based; parameters: dose 1 mg/kg, route iv; conditions: in vivo
[3] = tested on: NCI-H1975; assay: Induction of apoptosis in human NCI-H1975 cells assessed as induction of PARP cleavage pretreated with compound for 4 hrs followed by incubation with EGF for 10 mins by western blot analysis; assay type: functional, cell-based; conditions: dose 0.1-10 µM, time 250.0 min
[4] = tested on: Epidermal growth factor receptor (Homo sapiens), P00533 [L858R,T790M]; assay: Inhibition of EGFR L858R/T790M mutant in N-(3-((6-Fluoro-2-((4-(4-methylpiperazin-1-yl)phenyl)amino)quinazolin-4-yl)amino)phenyl)acrylamide-resistant human NCI-H1975 cells assessed as inhibition of EGF-induced AKT phosphorylation at Ser473 residue pretreated with compound and ACK1 inhibitor, Bosutinib for 4 hrs followed by incubation with EGF for 10 mins by western blot analysis; assay type: cell-based; conditions: time 250.0 min
[5] = Toxicity in BALB/c mouse xenografted with human NCI-H1975 cells assessed as change in liver morphological changes at 5 to 20 mg/kg/day, ip by hematoxylin-eosin staining based analysis; assay type: organism-based; conditions: in vivo, dose 5-20 mg/kg/day
[6] = tested on: Mus musculus; assay: In vivo inhibition of EGFR L858R/T790M mutant in NCI-H1975 cells xenografted BALB/c mouse assessed as inhibition of ERK-1/2 phosphorylation in tumor at 20 mg/kg/day, ip by immunoblot analysis; assay type: functional, organism-based
[7] = tested on: NCI-H1975; assay: Antitumor activity against human NCI-H1975 cells xenografted in ip dosed BALB/c mouse assessed as decrease in tumor weight; assay type: functional, organism-based; conditions: dose 5-20 mg/kg/day
[8] = Apparent volume of distribution in Sprague-Dawley rat at 1 mg/kg, iv by LC-MS analysis; assay type: ADME, organism-based; conditions: in vivo, read-out: Vz
[9] = tested on: NCI-H1975; assay: Antitumor activity against N-(3-((6-Fluoro-2-((4-(4-methylpiperazin-1-yl)phenyl)amino)quinazolin-4-yl)amino)phenyl)acrylamide-resistant human NCI-H1975 cells xenografted in BALB/c mouse assessed as […] in TUNEL-positive cells in tumor at 20 mg/kg/day, ip in presence of ACK1 inhibitor, dasatinib by TUNEL assay; assay type: functional, organism-based
[10] = biological target: Epidermal growth factor receptor (Homo sapiens, UniProt P00533, EX19DEL); assay: Inhibition of human EGFR exon del19 mutant by KINOMEscan analysis
[11] = Cmax in Sprague-Dawley rat at 1 mg/kg, iv by LC-MS analysis; assay type: ADME, organism-based; parameters: dose 1 mg/kg, route iv; conditions: in vivo
[12] = GSH reactivity in PBS buffer assessed as half life by HPLC analysis; assay type: ADME; conditions: PBS buffer with GSH
[13] = tested on: NCI-H1975; assay: Antiproliferative activity against N-(3-((6-Fluoro-2-((4-(4-methylpiperazin-1-yl)phenyl)amino)quinazolin-4-yl)amino)phenyl)acrylamide-resistant human NCI-H1975 cells assessed as reduction in cell viability at compound:dasatinib concentration ratio of 3:1 to 1:3 measured after 72 hrs in presence of ACK1 inhibitor, Dasatinib by MTT assay; assay type: functional, cell-based
[14] = tested on: NCI-H1975; assay: Antitumor activity against N-(3-((6-Fluoro-2-((4-(4-methylpiperazin-1-yl)phenyl)amino)quinazolin-4-yl)amino)phenyl)acrylamide-resistant human NCI-H1975 cells xenografted in BALB/c mouse assessed as inhibition of tumor weight at 20 mg/kg/day, ip in presence of ACK1 inhibitor, dasatinib; assay type: functional, organism-based
[15] = Toxicity in BALB/c mouse xenografted with human NCI-H1975 cells assessed as change in heart morphological changes at 5 to 20 mg/kg/day, ip by hematoxylin-eosin staining based analysis; assay type: organism-based; conditions: in vivo, dose 5-20 mg/kg/day
[16] = Toxicity in BALB/c mouse xenografted with human NCI-H1975 cells assessed as change in spleen morphological changes at 5 to 20 mg/kg/day, ip by hematoxylin-eosin staining based analysis; assay type: organism-based; conditions: in vivo, dose 5-20 mg/kg/day
[17] = tested on: Mus musculus; assay: In vivo inhibition of EGFR L858R/T790M mutant in ip dosed NCI-H1975 cells xenografted BALB/c mouse assessed as inhibition of EGFR phosphorylation at Tyr1068 residue in tumor by immunoblot analysis; assay type: functional, organism-based; conditions: dose 5-20 mg/kg/day
[18] = Toxicity in BALB/c mouse xenografted with human NCI-H1975 cells assessed as change in lung morphological changes at 5 to 20 mg/kg/day, ip by hematoxylin-eosin staining based analysis; assay type: organism-based; conditions: in vivo, dose 5-20 mg/kg/day
[19] = Selectivity ratio of IC50 for cytotoxicity against human A-431 cells harboring wild type EGFR to IC50 for antiproliferative activity against human NCI-H1975 cells harboring EGFR L858R/T790M mutant; assay type: toxicity, cell-based; conditions: read-out: Ratio IC50
[20] = tested on: NCI-H1975; assay: Induction of apoptosis in human NCI-H1975 cells assessed as increase in caspase-3/7 activity at 0.1 to 10 uM incubated for 24 hrs by Caspase-Glo reagent based luminescence analysis; assay type: functional, cell-based; conditions: dose 0.1-10 µM
[21] = Toxicity in BALB/c mouse xenografted with N-(3-((6-Fluoro-2-((4-(4-methylpiperazin-1-yl)phenyl)amino)quinazolin-4-yl)amino)phenyl)acrylamide-resistant human NCI-H1975 cells assessed as changes in liver morphological changes at 20 mg/kg/day, ip in presence of ACK1 inhibitor, dasatinib by hematoxylin-eosin staining based analysis; assay type: organism-based; conditions: in vivo
[22] = tested on: NCI-H1975; assay: Antiproliferative activity against N-(3-((6-Fluoro-2-((4-(4-methylpiperazin-1-yl)phenyl)amino)quinazolin-4-yl)amino)phenyl)acrylamide-resistant human NCI-H1975 cells assessed as reduction in cell viability at compound:Bosutinib concentration ratio of 3:1 to 1:3 measured after 72 hrs in presence of ACK1 inhibitor, Bosutinib by MTT assay; assay type: functional, cell-based
[23] = biological target: Epidermal growth factor receptor (Homo sapiens, UniProt P00533); assay: Inhibition of wild type EGFR in human A549 cells assessed as inhibition of EGF-induced Akt phosphorylation at Ser473 residue at 10 uM pretreated with compound for 4 hrs followed by incubation with EGF for 10 mins by western blot analysis; assay type: toxicity, cell-based; conditions: a549, 4.167 h, time 250 min
[24] = biological target: Epidermal growth factor receptor (Homo sapiens, UniProt P00533, L858R/T790M); assay: Inhibition of human partial length EGFR (R669 to V1011 residues) L858R/T790M mutant expressed in mammalian expression system by KINOMEscan analysis
[25] = tested on: Mus musculus; assay: In vivo inhibition of EGFR L858R/T790M mutant in N-(3-((6-Fluoro-2-((4-(4-methylpiperazin-1-yl)phenyl)amino)quinazolin-4-yl)amino)phenyl)acrylamide-resistant human NCI-H1975 cells xenografted BALB/c mouse assessed as inhibition of AKT phosphorylation at Ser473 residue in tumor at 20 mg/kg/day, ip in presence of ACK1 inhibitor, dasatinib by immunoblot analysis; assay type: functional, organism-based
[26] = tested on: Mus musculus; assay: In vivo inhibition of EGFR L858R/T790M mutant in ip dosed NCI-H1975 cells xenografted BALB/c mouse assessed as inhibition of ERK-1/2 phosphorylation in tumor by immunoblot analysis; assay type: functional, organism-based; conditions: dose 5-20 mg/kg/day
[27] = tested on: A549; assay: Inhibition of cell migration in human A549 cells at 10 uM incubated for 48 hrs by scratch wound healing assay; assay type: toxicity, cell-based; conditions: a549, 48 h

Sequence of Epidermal growth factor receptor (Homo sapiens), P00533 [L858R,T790M] (P00533 whole entry T790M/L858R, looked up): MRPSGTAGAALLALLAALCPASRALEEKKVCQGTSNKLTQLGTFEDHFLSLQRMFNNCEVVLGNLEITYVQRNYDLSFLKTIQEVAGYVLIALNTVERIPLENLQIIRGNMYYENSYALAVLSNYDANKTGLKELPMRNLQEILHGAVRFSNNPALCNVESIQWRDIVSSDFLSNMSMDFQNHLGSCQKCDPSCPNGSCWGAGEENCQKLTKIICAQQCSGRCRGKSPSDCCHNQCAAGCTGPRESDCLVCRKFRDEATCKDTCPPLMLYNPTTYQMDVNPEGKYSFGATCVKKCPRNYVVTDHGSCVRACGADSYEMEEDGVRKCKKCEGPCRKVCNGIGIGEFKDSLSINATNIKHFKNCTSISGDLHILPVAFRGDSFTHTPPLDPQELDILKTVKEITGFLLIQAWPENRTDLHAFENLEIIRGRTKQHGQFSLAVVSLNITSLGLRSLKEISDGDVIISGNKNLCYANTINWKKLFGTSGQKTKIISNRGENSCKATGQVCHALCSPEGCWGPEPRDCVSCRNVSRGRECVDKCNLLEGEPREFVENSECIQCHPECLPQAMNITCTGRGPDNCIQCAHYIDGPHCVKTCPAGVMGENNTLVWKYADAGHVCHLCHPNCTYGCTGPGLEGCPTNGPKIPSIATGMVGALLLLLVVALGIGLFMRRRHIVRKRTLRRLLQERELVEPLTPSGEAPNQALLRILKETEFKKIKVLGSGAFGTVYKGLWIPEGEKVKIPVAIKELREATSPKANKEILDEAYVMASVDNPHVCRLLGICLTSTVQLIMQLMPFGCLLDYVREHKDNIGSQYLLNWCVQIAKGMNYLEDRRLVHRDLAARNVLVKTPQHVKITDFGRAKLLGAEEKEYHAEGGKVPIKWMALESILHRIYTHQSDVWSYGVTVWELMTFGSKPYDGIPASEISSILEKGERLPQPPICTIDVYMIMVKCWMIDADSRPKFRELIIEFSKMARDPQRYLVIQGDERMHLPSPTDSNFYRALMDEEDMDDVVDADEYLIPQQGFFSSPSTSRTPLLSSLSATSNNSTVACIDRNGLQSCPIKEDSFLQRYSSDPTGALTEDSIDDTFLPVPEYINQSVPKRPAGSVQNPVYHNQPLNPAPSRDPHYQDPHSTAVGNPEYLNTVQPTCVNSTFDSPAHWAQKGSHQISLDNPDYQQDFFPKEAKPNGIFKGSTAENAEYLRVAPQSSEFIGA
Sequence of Epidermal growth factor receptor (Homo sapiens, UniProt P00533, EX19DEL) (P00533 whole entry, looked up, stated change not applied): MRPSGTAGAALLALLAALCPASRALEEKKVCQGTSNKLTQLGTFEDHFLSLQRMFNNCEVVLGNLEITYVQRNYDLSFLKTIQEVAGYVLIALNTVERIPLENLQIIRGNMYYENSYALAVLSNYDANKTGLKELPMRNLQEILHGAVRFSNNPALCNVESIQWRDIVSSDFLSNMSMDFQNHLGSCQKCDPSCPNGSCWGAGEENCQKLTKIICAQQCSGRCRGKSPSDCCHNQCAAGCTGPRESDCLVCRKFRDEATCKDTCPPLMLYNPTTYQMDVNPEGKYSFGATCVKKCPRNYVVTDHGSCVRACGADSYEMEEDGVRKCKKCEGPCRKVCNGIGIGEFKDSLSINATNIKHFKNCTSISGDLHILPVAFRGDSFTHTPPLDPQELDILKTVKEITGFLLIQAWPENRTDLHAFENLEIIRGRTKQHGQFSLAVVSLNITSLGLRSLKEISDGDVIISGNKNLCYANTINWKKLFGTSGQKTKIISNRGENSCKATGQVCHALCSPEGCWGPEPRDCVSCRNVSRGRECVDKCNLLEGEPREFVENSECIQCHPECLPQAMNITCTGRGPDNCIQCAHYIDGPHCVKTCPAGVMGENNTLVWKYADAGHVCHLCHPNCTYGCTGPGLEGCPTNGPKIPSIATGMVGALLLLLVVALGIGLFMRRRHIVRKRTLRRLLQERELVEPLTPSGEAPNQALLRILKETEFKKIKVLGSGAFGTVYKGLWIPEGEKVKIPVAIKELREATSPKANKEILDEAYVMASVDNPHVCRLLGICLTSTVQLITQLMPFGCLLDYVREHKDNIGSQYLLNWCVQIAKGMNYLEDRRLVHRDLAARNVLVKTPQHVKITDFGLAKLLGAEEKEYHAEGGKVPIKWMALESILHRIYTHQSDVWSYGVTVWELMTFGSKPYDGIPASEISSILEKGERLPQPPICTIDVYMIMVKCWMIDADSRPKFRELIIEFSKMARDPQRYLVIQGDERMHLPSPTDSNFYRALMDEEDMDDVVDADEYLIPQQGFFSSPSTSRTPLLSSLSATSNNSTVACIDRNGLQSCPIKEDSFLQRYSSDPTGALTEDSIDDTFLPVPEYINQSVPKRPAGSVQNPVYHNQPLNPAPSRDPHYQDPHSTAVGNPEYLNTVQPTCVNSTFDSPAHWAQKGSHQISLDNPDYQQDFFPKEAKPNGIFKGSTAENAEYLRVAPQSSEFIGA
Sequence of Epidermal growth factor receptor (Homo sapiens, UniProt P00533) (P00533 whole entry, the tested form may be a part): as the sequence (P00533 whole entry, looked up, stated change not applied) above
Sequence of Epidermal growth factor receptor (Homo sapiens, UniProt P00533, L858R/T790M) (P00533 25-1210 T790M/L858R limits assumed): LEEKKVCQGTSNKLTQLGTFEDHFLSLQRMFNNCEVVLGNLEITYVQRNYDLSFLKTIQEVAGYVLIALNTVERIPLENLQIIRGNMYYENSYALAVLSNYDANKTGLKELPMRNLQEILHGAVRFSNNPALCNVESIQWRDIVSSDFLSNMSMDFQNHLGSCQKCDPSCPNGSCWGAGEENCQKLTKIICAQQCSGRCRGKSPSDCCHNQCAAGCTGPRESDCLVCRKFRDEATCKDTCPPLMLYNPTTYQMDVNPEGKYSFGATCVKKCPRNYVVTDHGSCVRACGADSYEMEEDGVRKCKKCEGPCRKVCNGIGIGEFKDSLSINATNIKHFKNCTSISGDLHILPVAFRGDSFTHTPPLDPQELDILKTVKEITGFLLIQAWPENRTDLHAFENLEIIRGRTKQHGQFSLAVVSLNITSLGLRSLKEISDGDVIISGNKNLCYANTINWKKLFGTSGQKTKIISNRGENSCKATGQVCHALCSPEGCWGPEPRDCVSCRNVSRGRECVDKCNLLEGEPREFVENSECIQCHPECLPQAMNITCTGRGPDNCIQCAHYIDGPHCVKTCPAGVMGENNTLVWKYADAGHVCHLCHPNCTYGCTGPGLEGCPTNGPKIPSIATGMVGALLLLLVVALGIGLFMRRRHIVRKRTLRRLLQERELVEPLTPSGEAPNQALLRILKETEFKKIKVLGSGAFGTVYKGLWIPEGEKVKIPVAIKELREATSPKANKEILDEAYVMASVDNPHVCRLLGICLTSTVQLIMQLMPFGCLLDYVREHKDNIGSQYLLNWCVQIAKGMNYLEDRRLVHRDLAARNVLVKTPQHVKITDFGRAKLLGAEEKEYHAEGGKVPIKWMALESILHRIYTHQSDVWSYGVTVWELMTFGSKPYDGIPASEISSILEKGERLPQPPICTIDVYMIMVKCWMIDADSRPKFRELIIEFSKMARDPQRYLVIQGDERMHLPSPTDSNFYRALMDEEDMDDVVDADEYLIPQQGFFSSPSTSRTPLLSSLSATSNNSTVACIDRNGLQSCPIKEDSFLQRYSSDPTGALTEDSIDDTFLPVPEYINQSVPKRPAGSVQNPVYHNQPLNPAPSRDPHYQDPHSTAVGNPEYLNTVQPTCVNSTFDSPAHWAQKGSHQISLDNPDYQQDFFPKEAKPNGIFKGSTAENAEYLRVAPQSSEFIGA

## C=CC(=O)Nc1cccc(Nc2nc(Nc3ccc(N4CCN(C)CC4)cc3)nc3ccc(F)cc23)c1
[1]
  Activity: Dose-Dependent Effect
[2]
  AUC(0-inf): 1050 ng·h/mL
[3]
  Activity: Dose-Dependent Effect
[4]
  inhibition: Active
[5]
  Activity: Non-Toxic
[6]
  inhibition: Active
[7]
  Activity: Dose-Dependent Effect
[8]
  Vd: 2.52 L/kg
[9]
  Activity: Active
[10]
  IC50: 1.3 nM
[11]
  Cmax: 650 ng/mL
[12]
  half-life: 72.9 h
[13]
  Activity: Active
[14]
  Activity: Active
[15]
  Activity: Non-Toxic
[16]
  Activity: Non-Toxic
[17]
  inhibition: Dose-Dependent Effect
[18]
  Activity: Non-Toxic
[19]
  selectivity ratio: 130
[20]
  Activity: Active
[21]
  Activity: Non-Toxic
[22]
  Activity: Active
[23]
  inhibition (INH): Not Active
[24]
  IC50: 3.5 nM
[25]
  inhibition: Active
[26]
  inhibition: Dose-Dependent Effect
[27]
  Activity: Non-Toxic
